Data: EP4813979A1, “COMPOUND FOR EGFR PROTEIN DEGRADATION AND USE THEREOF” (TYK Medicines, Inc., priority 2023, dated 2025)
Where two headings read alike, the source gives them in different places.

Legend:
A549 = assay: Cell anti-proliferation experiment (CTG); format: cell-based; details: Homo sapiens, A549, 72 h, A549 (wild-type EGFR), class symbol
Source text: (§1) H1975 has an EGFR: T790M/L858R double mutation, PC-9 has an EGFR exon 19 deletion, and HCC827 has an exon 19 deletion mutation. Baf3-19del- T790M -C797S (Baf3-DTC) is a stable Ba/F3 clone expressing exogenous EGFR gene bearing T790M, C797S, and […] triple amino acid mutations, purchased from KYinno. Baf3-L858R-T790M - C797S (Baf3-LTC) is a stable Ba/F3 clone expressing exogenous EGFR gene bearing […], T790M, and C797S triple mutations, purchased from KYinno. A549 is a wild-type EGFR, purchased from Nanjing Kebai Biotechnology. A431 is a wild-type EGFR, purchased from Shanghai Xinyu Biotechnology. CellCounting-Lite2.0, Trypsin EDTA, 37°C CO2 incubator, cell counter, EnVision Serial No. 1050454.
(§2) • A) Digested logarithmic phase cells with Trypsin EDTA, added culture medium to stop the reaction, and mixing well with a pipette to prepare a cell suspension. • B) Used Vi-cell to determine cell concentration, and prepared a suspension of 15,000-25,000 cells per milliliter according to the experimental purpose and cell characteristics. • C) After prepared the cell suspension, mixed it gently and added 100 µL to each well, so that the cell density to be tested is 1500-2500 per well.
(§3) • A) Weighed approximately 2 mg the compound and calculated the required volume of DMSO according to the formula: Compound mass (mg) * Compound purity (%) / Compound molecular weight * 1000. • B) Placed the inoculated cell culture plate into an incubator and incubated for about 24 hours. Then added compounds of varying concentrations. • C) Diluted the 10mM compound stock solution to […] with culture medium, and added the […] compound solution to the second column of the deep well plate in sequence, and added […] culture medium containing 0.5% DMSO to the third to eleventh columns. • D) Gradient dilution: Taked 125 µL solution from the second column and added it to the third column, mix well; then taked 125 µL solution from the third column and added it to the fourth column, repeated this operation until the tenth column. • E) Used a multichannel pipette, aspirated 25 µL the compound from the deep-well plate and added it to a 96-well culture plate. Repeated this process three times for each compound on the 96-well plate. This will ultimately create a concentration gradient of up to 10,000 nM at a 1:4 ratio on the 96-well plate.
(§4) • A) The effects of the compound were observed under an inverted microscope after the 96-well plate was incubated in an incubator for 72 hours. • B) Added 25 µL CTG solution to each well, placed on a shaker for 10 minutes, and read the […] of each well.
(§5) Calculate the % Cell Viability using the following formula: %Cell Viability = 100% × (Lum_Sample−Lum_LC)/(Lum_HC−Lum_LC) [formula] • Lum_HC: Cell readings from the 0.1% DMSO control group • Lum_Sample: Cell readings with added compound • Lum_LC: Blank culture medium reading
(§6) The IC50 value was obtained by curve fitting using GraphPad Prism 8 software.

HCC827 = assay: Cell anti-proliferation experiment (CTG); format: cell-based; details: Homo sapiens, HCC827, 72 h, HCC827 (exon 19 deletion), class symbol
Source text: as §1, §2, §3, §4, §5, §6

A431 = assay: Cell anti-proliferation experiment (CTG); format: cell-based; details: Homo sapiens, A-431, 72 h, A431 (wild-type EGFR), class symbol
Source text: as §1, §2, §3, §4, §5, §6

[1] = system: Baf3-19del- T790M -C797S (Baf3-DTC); assay: Cell anti-proliferation experiment (CTG); format: cell-based; details: 72 h, class symbol
Source text: as §1, §2, §3, §4, §5, §6

H1975 = assay: Cell anti-proliferation experiment (CTG); format: cell-based; details: Homo sapiens, NCI-H1975, 72 h, H1975 (EGFR T790M/L858R), class symbol
Source text: as §1, §2, §3, §4, §5, §6

[2] = system: Baf3-L858R-T790M - C797S (Baf3-LTC); assay: Cell anti-proliferation experiment (CTG); format: cell-based; details: 72 h, class symbol
Source text: as §1, §2, §3, §4, §5, §6

PC-9 = assay: Cell anti-proliferation experiment (CTG); format: cell-based; details: Homo sapiens, PC-9, 72 h, PC-9 (EGFR exon 19 deletion), class symbol
Source text: as §1, §2, §3, §4, §5, §6

[3] = Pharmacokinetic tests in male SD rats; format: in vivo; details: oral gavage (po), 10 mg/kg, plasma; for AUC(0-inf) / AUC(0-t) / Cmax / MRT last / Tmax: rat
Method: Three healthy adult male SD rats, 6-8 weeks old, weighing 200-300 grams.
EDTA-Na2 anticoagulant, weighed 11.2 g EDTA-Na2 and placed it in a reagent bottle. Added 100 mL physiological saline and shaked to dissolve completely. After preparation, dispensed into 1.5 mL centrifuge tubes, each containing approximately 20 µL, for whole blood sample collection.
Accurately weighed approximately 10 mg the sample to be tested, added 10% of the converted total volume of DMSO to dissolve it, and then slowly added 90% of the total volume of 0.5% MC solvent while stirring. Sonicated and vortex to mix thoroughly to obtain a solution of the preparation that is considered to be homogeneous, with a concentration of 1 mg/mL. Prepared fresh immediately before use.
Piped 0.2 mL the sample into a 1.5 mL centrifuge tube and store at -80°C for analysis of the concentration of the drug solution.
Animals were housed in rat cages and fasted for at least 10 hours starting the day before the experiment, but water was allowed. On the day of the experiment, each animal was weighed and marked on its tail. Blank blood samples were collected before drug administration. Blood was collected via tail vein.
• Route of administration: Oral gavage (po); • Dosage concentration: 1 mg/ml; • Dosage: 10 mg/kg; • Dosage volume: 10 mL/kg; • Procedure: Hold the rat upright with your left hand wearing a bite-proof glove, insert the gavage needle into the throat through the mouth, and insert the needle when feeling no obvious resistance. Then inject the drug into the stomach.
Whole blood (0.1-0.2 ml) was collected from test animals at 0.5 h, 1 h, 2 h, 4 h, 6 h, 8 h, 12 h, and 24 h after drug administration. The samples were placed in EDTA-Na 2 anticoagulant tubes, inverted 3-4 times to mix, and centrifuged at 4°C, 2000 g for 5 min to separate the supernatant plasma. The plasma was promptly transferred to -80°C for storage until analysis. Blood was collected via tail vein.
A quantitative detection method for the analyte was established using Shimadzu liquid chromatography and Triple Quad™ 6500+AB mass spectrometry. The concentration of the parent drug in plasma was analyzed. The analytical results were controlled for variation using quality control samples, with the accuracy of the quality control samples expected to be between 80% and 120%.
The main pharmacokinetic parameters were calculated using a non-compartmental model in Winnonlin Phoenix software. These parameters included the area under the curve (AUC(0-t) and AUC(0-∞)), elimination half-life (T1/2), maximum plasma concentration (Cmax ), and time to reach maximum plasma concentration (Tmax).The results are shown in Table 3.

[4] = biological target: EGFR in Baf3-L858R-T790M-C797S (Homo sapiens, UniProt P00533, C797S/L858R/T790M); assay: EGFR PROTAC HTRF experiment (total EGFR degradation); format: cell-based; details: for DC50: read-out: Baf3-LTC DC50; for Dmax: read-out: Baf3-LTC Dmax
Method: (§7) [table] Among them, B[…] -C797S (abbreviated as Baf3-DTC) is a stable Ba/F3 clone expressing exogenous EGFR gene bearing T790M, C797S and […] triple amino acid mutations, purchased from KYinno; Baf3-L858R-T790M - C797S (abbreviated as Baf3-LTC) is a stable Ba/F3 clone expressing exogenous EGFR gene bearing […], T790M, C797S triple mutations, purchased from KYinno. [table] [table] Dilutded Eu and d2 antibodies 2μl per well with detection buffer 20-fold. Then mixed the two antibody vials thoroughly. [table] Opened EnVision , locate the HTRF program, configured the board, and then read […]. The fitted curve, DC50 and Dmax of this compound could be generated using GraphPad Prism .

[5] = biological target: EGFR in Baf3-19del-T790M-C797S (Homo sapiens, UniProt P00533, C797S/DEL746-750/T790M); assay: as above; format: cell-based; details: for DC50: read-out: Baf3-DTC DC50; for Dmax: read-out: Baf3-DTC Dmax
Method: as §7

[6] = Baf3-LTC, incubated 16 hours, HTRF total EGFR
[7] = Baf3-DTC, incubated 16 hours, HTRF total EGFR

EGFR in Baf3-19del-T790M-C797S, sequence (P00533 with tags, fused parts or gaps DEL746-750/T790M/C797S): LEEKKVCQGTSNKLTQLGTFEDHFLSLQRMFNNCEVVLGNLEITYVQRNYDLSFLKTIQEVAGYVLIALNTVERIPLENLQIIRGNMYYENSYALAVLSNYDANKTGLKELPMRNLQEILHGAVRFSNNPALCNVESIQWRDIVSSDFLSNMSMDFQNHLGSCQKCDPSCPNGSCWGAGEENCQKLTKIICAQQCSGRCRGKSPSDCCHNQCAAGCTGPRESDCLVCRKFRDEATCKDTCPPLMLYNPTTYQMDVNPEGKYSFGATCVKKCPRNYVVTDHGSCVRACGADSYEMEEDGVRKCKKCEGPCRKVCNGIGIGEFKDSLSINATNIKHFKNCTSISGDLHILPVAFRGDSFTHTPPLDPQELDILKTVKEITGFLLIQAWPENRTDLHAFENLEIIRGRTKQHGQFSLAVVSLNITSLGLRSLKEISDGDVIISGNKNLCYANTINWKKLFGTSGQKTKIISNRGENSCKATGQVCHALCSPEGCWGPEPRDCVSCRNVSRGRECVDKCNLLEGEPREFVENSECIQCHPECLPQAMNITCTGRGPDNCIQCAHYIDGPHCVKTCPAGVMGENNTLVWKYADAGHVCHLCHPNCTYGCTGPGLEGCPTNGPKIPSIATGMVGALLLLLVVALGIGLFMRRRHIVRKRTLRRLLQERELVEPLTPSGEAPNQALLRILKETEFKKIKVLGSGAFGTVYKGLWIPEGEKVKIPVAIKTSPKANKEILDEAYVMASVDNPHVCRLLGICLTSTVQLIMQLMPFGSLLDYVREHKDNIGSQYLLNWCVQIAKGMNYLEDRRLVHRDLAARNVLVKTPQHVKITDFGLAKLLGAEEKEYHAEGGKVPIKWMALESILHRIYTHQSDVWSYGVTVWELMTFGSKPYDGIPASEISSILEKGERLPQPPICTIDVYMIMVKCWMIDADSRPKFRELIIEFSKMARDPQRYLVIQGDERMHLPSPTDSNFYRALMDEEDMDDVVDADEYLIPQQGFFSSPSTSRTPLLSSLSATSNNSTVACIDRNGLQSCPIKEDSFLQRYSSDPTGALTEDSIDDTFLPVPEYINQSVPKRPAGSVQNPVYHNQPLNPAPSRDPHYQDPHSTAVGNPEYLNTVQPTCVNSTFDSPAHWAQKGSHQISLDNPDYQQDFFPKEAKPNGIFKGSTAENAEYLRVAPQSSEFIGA
EGFR in Baf3-L858R-T790M-C797S, sequence (P00533 25-1210 T790M/C797S/L858R): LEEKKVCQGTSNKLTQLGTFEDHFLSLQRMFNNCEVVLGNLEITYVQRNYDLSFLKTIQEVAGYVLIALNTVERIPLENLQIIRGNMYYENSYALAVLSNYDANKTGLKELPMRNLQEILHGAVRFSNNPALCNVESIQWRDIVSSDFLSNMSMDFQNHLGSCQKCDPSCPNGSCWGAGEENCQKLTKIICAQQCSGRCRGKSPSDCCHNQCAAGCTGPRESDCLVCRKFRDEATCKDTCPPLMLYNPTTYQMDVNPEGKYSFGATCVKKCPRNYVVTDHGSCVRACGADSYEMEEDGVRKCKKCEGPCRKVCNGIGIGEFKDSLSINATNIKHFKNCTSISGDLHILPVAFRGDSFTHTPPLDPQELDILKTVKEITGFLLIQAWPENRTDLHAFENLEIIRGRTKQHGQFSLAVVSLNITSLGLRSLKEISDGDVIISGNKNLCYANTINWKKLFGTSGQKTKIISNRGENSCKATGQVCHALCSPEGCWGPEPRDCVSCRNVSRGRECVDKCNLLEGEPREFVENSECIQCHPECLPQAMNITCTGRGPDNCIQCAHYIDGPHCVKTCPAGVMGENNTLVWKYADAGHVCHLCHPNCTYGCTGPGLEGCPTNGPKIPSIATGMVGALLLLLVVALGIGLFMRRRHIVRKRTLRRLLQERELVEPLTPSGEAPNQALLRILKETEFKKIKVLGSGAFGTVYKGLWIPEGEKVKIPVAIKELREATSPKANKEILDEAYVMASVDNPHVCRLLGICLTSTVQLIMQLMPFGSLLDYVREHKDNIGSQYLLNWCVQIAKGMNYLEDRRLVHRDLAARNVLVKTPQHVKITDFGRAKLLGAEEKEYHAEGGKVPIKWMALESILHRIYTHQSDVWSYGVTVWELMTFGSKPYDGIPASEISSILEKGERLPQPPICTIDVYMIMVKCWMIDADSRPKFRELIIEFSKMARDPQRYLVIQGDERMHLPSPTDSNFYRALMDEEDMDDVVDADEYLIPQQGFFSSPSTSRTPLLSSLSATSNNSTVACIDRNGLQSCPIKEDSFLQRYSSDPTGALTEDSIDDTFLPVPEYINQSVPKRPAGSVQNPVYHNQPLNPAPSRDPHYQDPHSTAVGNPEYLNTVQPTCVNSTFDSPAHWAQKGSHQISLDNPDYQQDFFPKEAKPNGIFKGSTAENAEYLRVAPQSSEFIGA

Question: Which results are given for `CCc1cc(Nc2ncc(Cl)c(Nc3ccccc3P(C)(C)=O)n2)c(OC)cc1N1CC2(CCN(C(=O)CN3CCC(c4cc5c(cc4F)c(N4CCC(=O)NC4=O)nn5C)CC3)CC2)C1` [TC-093]?
Answer: IC50 (A549): > 1000 nM; IC50 (HCC827): 10 to 100 nM; IC50 (A431): > 1000 nM; IC50 [1]: 10 to 100 nM; IC50 (H1975): 10 to 100 nM; IC50 [2]: 10 to 100 nM; IC50 (PC-9): 100 to 1000 nM; HL [3]: 3.43 h; AUC(0-inf) [3]: 4930 ng·h/mL; AUC(0-t) [3]: 5030 ng·h/mL; Cmax [3]: 665 ng/mL; MRT last [3]: 5.98 h; Tmax [3]: 4 h

Question: What does the source list for `CCc1cc(Nc2ncc(Cl)c(Nc3ccc(Cl)cc3C(C)(C)O)n2)c(OC)cc1N1CCN(C(=O)CN2CCC(c3cc4c(cc3F)c(N3CCC(=O)NC3=O)nn4C)C(F)(F)C2)CC1` (centres unmarked) [TA-009]?
Answer: DC50 [4, 6]: 100 to 1000 nM; Dmax [4, 6]: 70 to 100%; DC50 [5, 7]: 100 to 1000 nM; Dmax [5, 7]: 70 to 100%

Question: With `CCc1cc(Nc2ncc(Cl)c(Nc3ccccc3P(C)(C)=O)n2)c(OC)cc1N1CCN(C(=O)CN2CCC(c3cc4c(cc3F)c(N3CCC(=O)NC3=O)nn4C)C(F)(F)C2)[C@@H](C)C1` (some centres unmarked) [TA-025] as the compound, how does the DC50 [4, 6] read?
Answer: 10 to 100 nM

Question: What about the Dmax [4, 6] of the same compound?
Answer: 70 to 100%

Question: And the DC50 [5, 7]?
Answer: 10 to 100 nM

Question: What about the Dmax [5, 7] of the same compound?
Answer: 70 to 100%

Question: For `CCc1cc(Nc2ncc(Cl)c(Nc3ccccc3P3(=O)CCCC3)n2)c(OC)cc1N1CCN(C(=O)CN2CCC(c3cc4c(cc3F)c(N3CCC(=O)NC3=O)nn4C)C(F)(F)C2)CC1` (centres unmarked) [TA-045], which DC50 [4, 6] is on record?
Answer: 10 to 100 nM

Question: What about the Dmax [4] of the same compound?
Answer: 70 to 100%

Question: What about the DC50 [5, 7] of the same compound?
Answer: 10 to 100 nM

Question: What about the Dmax [5] of the same compound?
Answer: 70 to 100%

Question: For `CCc1cc(Nc2ncc(Br)c(Nc3ccccc3P(C)(C)=O)n2)c(OC)cc1N1CCN(C(=O)Cn2nc(C)c(-c3cc4c(cc3F)c(N3CCC(=O)NC3=O)nn4C)c2C)CC1` [TC-144], which IC50 (A549) is on record?
Answer: 100 to 1000 nM

Question: And the IC50 (HCC827)?
Answer: 100 to 1000 nM

Question: And the IC50 (A431)?
Answer: > 1000 nM

Question: What about the IC50 [1] of the same compound?
Answer: < 10 nM

Question: And the IC50 (H1975)?
Answer: 10 to 100 nM

Question: What about the IC50 [2] of the same compound?
Answer: < 10 nM

Question: What about the IC50 (PC-9) of the same compound?
Answer: 100 to 1000 nM

Question: What about the HL [3] of the same compound?
Answer: 3.21 h

Question: What about the AUC(0-inf) ([3]; in vivo) of the same compound?
Answer: 4140 ng·h/mL

Question: And the AUC(0-t) ([3]; in vivo)?
Answer: 4120 ng·h/mL

Question: And the Cmax ([3]; in vivo)?
Answer: 700 ng/mL

Question: What about the MRT last ([3]; in vivo) of the same compound?
Answer: 4.23 h

Question: And the Tmax ([3]; in vivo)?
Answer: 0.67 h
